Measured values published in PubChem BioAssay (NCI).
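A five-concentration, 48-hour dose response in 96-well plates underlies each endpoint, interpolated linearly between surrounding concentrations. The concentration for full growth arrest is given as TGI.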

Columns and labels:
Assay in all cases: NCI-60 cell line screen, 48 h
[1] = system: NCI-H460 lung
[2] = system: HOP-92 NSCLC
[3] = system: NCI-H23 lung
[4] = system: SNB-19 CNS
[5] = system: HT29 colon
[6] = system: OVCAR-5 ovarian
[7] = system: SW-620 colon
[8] = system: PC-3 prostate
[9] = system: MOLT-4 leukemia
[10] = system: MCF7 breast
[11] = system: SN12C renal
[12] = system: UACC-257 melanoma
[13] = system: MALME-3M melanoma
[14] = system: SF-295 CNS
[15] = system: UO-31 renal
[16] = system: BT-549 breast
[17] = system: EKVX NSCLC
[18] = system: M14 melanoma
[19] = system: NCI-H226 lung
[20] = system: COLO 205 colon
[21] = system: CAKI-1 renal
[22] = system: MDA-MB-231 breast
[23] = system: MDA-N
[24] = system: 786-0 renal
[25] = system: OVCAR-8 ovarian
[26] = system: HCT-116 colon
[27] = system: HL-60(TB) leukemia
[28] = system: HCT-15 colon
[29] = system: HOP-62 NSCLC
[30] = system: KM12 colon
[31] = system: DU-145 prostate
[32] = system: ACHN renal
[33] = system: UACC-62 melanoma
[34] = system: HCC-2998 colon
[35] = system: SF-268 CNS
[36] = system: TK-10 renal
[37] = system: MDA-MB-435
[38] = system: HS 578T breast
[39] = system: A498 renal
[40] = system: K-562 leukemia
[41] = system: NCI-H522 lung
[42] = system: OVCAR-3 ovarian
[43] = system: T-47D breast
[44] = system: RPMI-8226 leukemia
[45] = system: LOX IMVI melanoma
[46] = system: IGROV1 ovarian
[47] = system: RXF 393 renal
[48] = system: SK-MEL-2 melanoma
[49] = system: A549 NSCLC
[50] = system: SK-OV-3 ovarian
[51] = system: SK-MEL-5 melanoma
[52] = system: SF-539 CNS
[53] = system: SNB-75 CNS
[54] = system: NCI/ADR-RES ovarian
[55] = system: U251 CNS
[56] = system: OVCAR-4 ovarian
[57] = system: SR leukemia
[58] = system: CCRF-CEM leukemia
[59] = system: SK-MEL-28 melanoma

## Cn1c(=S)[nH]c2sc3c(c2c1=O)CCSC3
[1]
  TGI: > 100 µM
[2]
  TGI: > 100 µM
[3]
  TGI: > 100 µM
[4]
  TGI: > 100 µM
[5]
  TGI: > 100 µM
[6]
  TGI: > 100 µM
[7]
  TGI: > 100 µM
[8]
  TGI: > 100 µM
[9]
  TGI: > 100 µM
[10]
  TGI: > 100 µM
[11]
  TGI: > 100 µM
[12]
  TGI: > 100 µM
[13]
  TGI: > 100 µM
[14]
  TGI: 97.3 µM
[15]
  TGI: 25.8 µM
[16]
  TGI: > 100 µM
[17]
  TGI: 85.4 µM
[18]
  TGI: > 100 µM
[19]
  TGI: 88.6 µM
[20]
  TGI: > 100 µM
[21]
  TGI: > 100 µM
[22]
  TGI: > 100 µM
[23]
  TGI: > 100 µM
[24]
  TGI: > 100 µM
[25]
  TGI: > 100 µM
[26]
  TGI: > 100 µM
[27]
  TGI: 43.3 µM
[28]
  TGI: > 100 µM
[29]
  TGI: 66.3 µM
[30]
  TGI: > 100 µM
[31]
  TGI: 57.1 µM
[32]
  TGI: > 100 µM
[33]
  TGI: > 100 µM
[34]
  TGI: > 100 µM
[35]
  TGI: > 100 µM
[36]
  TGI: > 100 µM
[37]
  TGI: > 100 µM
[38]
  TGI: > 100 µM
[39]
  TGI: > 100 µM
[40]
  TGI: > 100 µM
[41]
  TGI: > 100 µM
[42]
  TGI: 61 µM
[43]
  TGI: 90.2 µM
[44]
  TGI: > 100 µM
[45]
  TGI: > 100 µM
[46]
  TGI: > 100 µM
[47]
  TGI: 14.7 µM
[48]
  TGI: > 100 µM
[49]
  TGI: > 100 µM
[50]
  TGI: > 100 µM
[51]
  TGI: > 100 µM
[52]
  TGI: > 100 µM
[53]
  TGI: > 100 µM
[54]
  TGI: > 100 µM
[55]
  TGI: > 100 µM
[56]
  TGI: > 100 µM

## C=CCOc1ccc(/C(N=Nc2ccc(Cl)cc2)=N/NC(=O)c2ccccc2)cc1OC
[1]
  TGI: > 100 µM
[2]
  TGI: 91.6 µM
[3]
  TGI: > 100 µM
[4]
  TGI: > 100 µM
[57]
  TGI: > 100 µM
[5]
  TGI: > 100 µM
[6]
  TGI: > 100 µM
[7]
  TGI: > 100 µM
[8]
  TGI: > 100 µM
[9]
  TGI: > 100 µM
[10]
  TGI: > 100 µM
[11]
  TGI: > 100 µM
[12]
  TGI: > 100 µM
[13]
  TGI: > 100 µM
[14]
  TGI: > 100 µM
[15]
  TGI: > 100 µM
[16]
  TGI: 70.3 µM
[17]
  TGI: > 100 µM
[18]
  TGI: > 100 µM
[19]
  TGI: > 100 µM
[20]
  TGI: > 100 µM
[21]
  TGI: > 100 µM
[22]
  TGI: > 100 µM
[23]
  TGI: > 100 µM
[24]
  TGI: > 100 µM
[25]
  TGI: > 100 µM
[26]
  TGI: > 100 µM
[58]
  TGI: 86.9 µM
[59]
  TGI: > 100 µM
[27]
  TGI: > 100 µM
[28]
  TGI: > 100 µM
[29]
  TGI: > 100 µM
[30]
  TGI: > 100 µM
[31]
  TGI: > 100 µM
[32]
  TGI: > 100 µM
[33]
  TGI: > 100 µM
[34]
  TGI: > 100 µM
[35]
  TGI: > 100 µM
[36]
  TGI: > 100 µM
[37]
  TGI: > 100 µM
[38]
  TGI: > 100 µM
[39]
  TGI: > 100 µM
[41]
  TGI: > 100 µM
[42]
  TGI: > 100 µM
[43]
  TGI: 61.6 µM
[45]
  TGI: > 100 µM
[46]
  TGI: > 100 µM
[48]
  TGI: > 100 µM
[49]
  TGI: > 100 µM
[51]
  TGI: > 100 µM
[53]
  TGI: > 100 µM
[54]
  TGI: > 100 µM
[55]
  TGI: > 100 µM
[56]
  TGI: > 100 µM
